In patent publication US12103920B2, “Cereblon binding compounds, compositions thereof, and methods of treatment therewith” (Celgene Corporation, priority 2020, dated 2024):
Where a name gives a salt, the structure may show the parent alone.

Biological target: T1, AR protein in VCaP cells (Homo sapiens, UniProt P10275)
T1 construct: endogenous in cells; host or cells: VCaP cells
T1 sequence (P10275 1-920): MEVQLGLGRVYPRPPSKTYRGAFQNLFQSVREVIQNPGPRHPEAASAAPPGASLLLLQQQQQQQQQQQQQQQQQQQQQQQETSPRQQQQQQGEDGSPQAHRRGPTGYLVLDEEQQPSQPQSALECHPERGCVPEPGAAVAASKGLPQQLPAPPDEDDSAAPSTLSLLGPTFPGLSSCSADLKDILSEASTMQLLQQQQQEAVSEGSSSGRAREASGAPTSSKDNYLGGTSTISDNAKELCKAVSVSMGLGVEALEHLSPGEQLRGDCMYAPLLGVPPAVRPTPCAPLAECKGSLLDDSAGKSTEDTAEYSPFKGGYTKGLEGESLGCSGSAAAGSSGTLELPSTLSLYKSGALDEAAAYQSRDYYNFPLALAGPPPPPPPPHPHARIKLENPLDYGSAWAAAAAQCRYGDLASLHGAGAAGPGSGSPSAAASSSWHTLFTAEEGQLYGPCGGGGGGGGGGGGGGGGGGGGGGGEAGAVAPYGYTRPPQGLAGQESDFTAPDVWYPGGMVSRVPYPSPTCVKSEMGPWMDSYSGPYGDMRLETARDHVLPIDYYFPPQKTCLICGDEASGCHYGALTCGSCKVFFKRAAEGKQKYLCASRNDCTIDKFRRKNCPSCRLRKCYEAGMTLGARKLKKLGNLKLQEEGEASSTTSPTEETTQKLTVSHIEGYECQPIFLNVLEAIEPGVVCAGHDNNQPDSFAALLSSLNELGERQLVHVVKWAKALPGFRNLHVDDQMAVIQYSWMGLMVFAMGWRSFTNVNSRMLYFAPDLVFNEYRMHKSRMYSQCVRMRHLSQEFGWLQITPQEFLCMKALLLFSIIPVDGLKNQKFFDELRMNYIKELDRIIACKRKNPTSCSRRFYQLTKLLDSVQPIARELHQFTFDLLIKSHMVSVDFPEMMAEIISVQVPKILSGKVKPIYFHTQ
Assay: VCAP AR Degradation Assay
Assay type: cell-based
Conditions: 24 h, AR ELISA; for DC50: concentration at 50% of DMSO control (50% AR degradation); for Y: lowest measured AR level normalized to DMSO control
Description: VCAP AR Degradation Assay. Test compounds were pre-dispensed into a Corning CellBind 96-well clear bottom plate (Cat #3300) using an acoustic dispenser to make a 10-point concentration series at 1:3 dilution for each compound. The final top concentration of each compound was 5 μM. DMSO at a final concentration of 0.1% was used as a control. VCaP cells cultured in DMEM with 8% fetal bovine serum (FBS) were seeded at 50K cells per well in a 200 μL volume into the compound plate and incubated at 37° C. in a CO2 incubator for 24 h. The medium was carefully removed from the cells and the plate was placed on ice. One hundred μL of ice-cold 1× cell lysis buffer from Cell Signaling Technologies (Cat #9803) was added to each well of the cells and the plate was incubated at 4° C. on a shaker for 1 h. Fifteen μL of cell lysate was used for AR ELISA detection using a PathScan Total Sandwich AR ELISA kit (Cell Signaling Technology, Cat #12580). AR levels in compound-treated wells were normalized to that of DMSO control and expressed as percent of control (PoC) (y). A Four Parameter Logistic Model (Sigmoidal Dose-Response Model) was used to determine the compound's DC50, and EC50, using the following equation: y=(A+((B−A)/(1+((C/x)^D)))) • A=YMin (lowest AR level normalized to DMSO control in response to compound treatment, as determined by curve fit) • B=YMax (maximum AR level as determined by curve fit) • C=EC50 • D=Hill Slope • x=compound concentration • EC50=the concentration of compound when y=(YMax−YMin)/2 • DC50=the concentration of the compound when y=50% of DMSO control (50% AR degradation) • y=AR protein level normalized to DMSO control
The lowest measured AR level normalized to DMSO control in response to compound treatment, termed Y value, was used to characterize the compound-mediated AR degradation efficiency.

Compound | DC50 | Y
CC1(C)C(=O)N(c2cnc(C#N)c(C(F)(F)F)c2)C(=S)N1[C@H]1CC[C@H](OCCN2CCN(CC(=O)Nc3cc(Cl)cc(NC4CCC(=O)NC4=O)c3)[C@@H](C(F)(F)F)C2)CC1 (stereo partly drawn) [Cmpd 26, N-(3-Chloro-5-((2,6-dioxopiperidin-3-yl)amino)phenyl)-2-((R)-4-(2-(((trans)-4-(3-(6-cyano-5-(trifluoromethyl)pyridin-3-yl)-5,5-dimethyl-4-oxo-2-thioxoimidazolidin-1-yl)cyclohexyl)oxy)ethyl)-2-(trifluoromethyl)piperazin-1-yl)acetamide] | 5 to 10 nM | * (0<Y≤15%)
CC1(C)C(=O)N(c2ccc(C#N)c(C(F)(F)F)c2)C(=S)N1[C@H]1CC[C@H](OCCN2CCN(CC(=O)Nc3cc(Cl)cc(NC4CCC(=O)NC4=O)c3)[C@@H](C(F)(F)F)C2)CC1 (stereo partly drawn) [Cmpd 27, N-(3-Chloro-5-((2,6-dioxopiperidin-3-yl)amino)phenyl)-2-((R)-4-(2-(((trans)-4-(3-(4-cyano-3-(trifluoromethyl)phenyl)-5,5-dimethyl-4-oxo-2-thioxoimidazolidin-1-yl)cyclohexyl)oxy)ethyl)-2-(trifluoromethyl)piperazin-1-yl)acetamide] | 10 to 100 nM | * (0<Y≤15%)
CC1(C)C(=O)N(c2cnc(C#N)c(C(F)(F)F)c2)C(=S)N1[C@H]1CC[C@H](OCCCN2CCN(CC(=O)Nc3cccc(NC4CCC(=O)NC4=O)c3)[C@@H](C(F)(F)F)C2)CC1 (stereo partly drawn) [Cmpd 28, 2-((R)-4-(3-(((trans)-4-(3-(6-cyano-5-(trifluoromethyl)pyridin-3-yl)-5,5-dimethyl-4-oxo-2-thioxoimidazolidin-1-yl)cyclohexyl)oxy)propyl)-2-(trifluoromethyl)piperazin-1-yl)-N-(3-((2,6-dioxopiperidin-3-yl)amino)phenyl)acetamide] | ≤ 5 nM | * (0<Y≤15%)
CC1(C)C(=O)N(c2ccc(C#N)c(C(F)(F)F)c2)C(=S)N1[C@H]1CC[C@H](CCCN2CCN(CC(=O)Nc3cccc(NC4CCC(=O)NC4=O)c3)[C@@H](C(F)(F)F)C2)CC1 (stereo partly drawn) [Cmpd 29, 2-((R)-4-(3-((trans)-4-(3-(4-Cyano-3-(trifluoromethyl)phenyl)-5,5-dimethyl-4-oxo-2-thioxoimidazolidin-1-yl)cyclohexyl)propyl)-2-(trifluoromethyl)piperazin-1-yl)-N-(3-((2,6-dioxopiperidin-3-yl)amino)phenyl)acetamide] | 5 to 10 nM | * (0<Y≤15%)
CC1(C)C(=O)N(c2ccc(C#N)c(C(F)(F)F)c2)C(=S)N1[C@H]1CC[C@H](OCCCN2CCN(CC(=O)Nc3cccc(NC4CCC(=O)NC4=O)c3)[C@@H](C(F)(F)F)C2)CC1 (stereo partly drawn) [Cmpd 30, 2-((R)-4-(3-(((trans)-4-(3-(4-Cyano-3-(trifluoromethyl)phenyl)-5,5-dimethyl-4-oxo-2-thioxoimidazolidin-1-yl)cyclohexyl)oxy)propyl)-2-(trifluoromethyl)piperazin-1-yl)-N-(3-((2,6-dioxopiperidin-3-yl)amino)phenyl)acetamide] | 5 to 10 nM | * (0<Y≤15%)
CC1(C)C(=O)N(c2cnc(C#N)c(C(F)(F)F)c2)C(=S)N1[C@H]1CC[C@H](OCCN2CCN(CC(=O)Nc3cc(C#N)cc(NC4CCC(=O)NC4=O)c3)[C@@H](C(F)(F)F)C2)CC1 (stereo partly drawn) [Cmpd 31, N-(3-Cyano-5-((2,6-dioxopiperidin-3-yl)amino)phenyl)-2-((R)-4-(2-(((trans)-4-(3-(6-cyano-5-(trifluoromethyl)pyridin-3-yl)-5,5-dimethyl-4-oxo-2-thioxoimidazolidin-1-yl)cyclohexyl)oxy)ethyl)-2-(trifluoromethyl)piperazin-1-yl)acetamide] | ≤ 5 nM | * (0<Y≤15%)
C[C@@H]1C[C@H](OCCC[C@H]2CC[C@H](N3C(=S)N(c4ccc(C#N)c(C(F)(F)F)c4)C(=O)C3(C)C)CC2)C[C@H](C)N1CC(=O)Nc1cccc(NC2CCC(=O)NC2=O)c1 (stereo partly drawn) [Cmpd 32, 2-((2R,4r,6S)-4-(3-((trans)-4-(3-(4-Cyano-3-(trifluoromethyl)phenyl)-5,5-dimethyl-4-oxo-2-thioxoimidazolidin-1-yl)cyclohexyl)propoxy)-2,6-dimethylpiperidin-1-yl)-N-(3-((2,6-dioxopiperidin-3-yl)amino)phenyl)acetamide] | 10 to 100 nM | ** (15%<Y≤20%)
C[C@@H]1C[C@H](OCCC[C@H]2CC[C@H](N3C(=S)N(c4cnc(C#N)c(C(F)(F)F)c4)C(=O)C3(C)C)CC2)C[C@H](C)N1CC(=O)Nc1cccc(NC2CCC(=O)NC2=O)c1 (stereo partly drawn) [Cmpd 33, 2-((2R,4r,6S)-4-(3-((trans)-4-(3-(6-Cyano-5-(trifluoromethyl)pyridin-3-yl)-5,5-dimethyl-4-oxo-2-thioxoimidazolidin-1-yl)cyclohexyl)propoxy)-2,6-dimethylpiperidin-1-yl)-N-(3-((2,6-dioxopiperidin-3-yl)amino)phenyl)acetamide hydrochloride] | 5 to 10 nM | ** (15%<Y≤20%)
CC1(C)C(=O)N(c2ccc(C#N)c(C(F)(F)F)c2)C(=S)N1[C@H]1CC[C@H](OCCN2CCN(CC(=O)Nc3cc(C#N)cc(NC4CCC(=O)NC4=O)c3)[C@@H](C(F)(F)F)C2)CC1 (stereo partly drawn) [Cmpd 34, 2-((R)-4-(2-(((trans)-4-(3-(4-Cyano-3-(trifluoromethyl)phenyl)-5,5-dimethyl-4-oxo-2-thioxoimidazolidin-1-yl)cyclohexyl)oxy)ethyl)-2-(trifluoromethyl)piperazin-1-yl)-N-(3-cyano-5-((2,6-dioxopiperidin-3-yl)amino)phenyl)acetamide] | 5 to 10 nM | *** (25%<Y<50%)
C[C@@H]1C[C@H](OCC[C@H]2CC[C@H](N3C(=S)N(c4cnc(C#N)c(C(F)(F)F)c4)C(=O)C3(C)C)CC2)C[C@H](C)N1CC(=O)Nc1cccc(NC2CCC(=O)NC2=O)c1 (stereo partly drawn) [Cmpd 35, 2-((2R,4r,6S)-4-(2-((trans)-4-(3-(6-Cyano-5-(trifluoromethyl)pyridin-3-yl)-5,5-dimethyl-4-oxo-2-thioxoimidazolidin-1-yl)cyclohexyl)ethoxy)-2,6-dimethylpiperidin-1-yl)-N-(3-((2,6-dioxopiperidin-3-yl)amino)phenyl)acetamide hydrochloride] | 10 to 100 nM | * (0<Y≤15%)
C[C@@H]1C[C@H](OCC[C@H]2CC[C@H](N3C(=S)N(c4ccc(C#N)c(C(F)(F)F)c4)C(=O)C3(C)C)CC2)C[C@H](C)N1CC(=O)Nc1cccc(NC2CCC(=O)NC2=O)c1 (stereo partly drawn) [Cmpd 36, 2-((2R,4r,6S)-4-(2-((trans)-4-(3-(4-Cyano-3-(trifluoromethyl)phenyl)-5,5-dimethyl-4-oxo-2-thioxoimidazolidin-1-yl)cyclohexyl)ethoxy)-2,6-dimethylpiperidin-1-yl)-N-(3-((2,6-dioxopiperidin-3-yl)amino)phenyl)acetamide] | 10 to 100 nM | ** (15%<Y≤20%)
C[C@@H]1CN(CCC[C@H]2CC[C@H](N3C(=S)N(c4ccc(C#N)c(C(F)(F)F)c4)C(=O)C3(C)C)CC2)C[C@H](C)N1CC(=O)Nc1cc(F)cc(NC2CCC(=O)NC2=O)c1 (stereo partly drawn) [Cmpd 38, 2-((2R,6S)-4-(3-((trans)-4-(3-(4-Cyano-3-(trifluoromethyl)phenyl)-5,5-dimethyl-4-oxo-2-thioxoimidazolidin-1-yl)cyclohexyl)propyl)-2,6-dimethylpiperazin-1-yl)-N-(3-((2,6-dioxopiperidin-3-yl)amino)-5-fluorophenyl)acetamide] | 5 to 10 nM | * (0<Y≤15%)
